Data published in patent US9572807B2, “Protocols for treatment of major depressive disorder (MDD)” (NEURALSTEM, INC., priority 2014, dated 2017).

Key:
Type in all cases: in vivo, human
[1] = tested on: patients with symptomatic MDD; assay: Montgomery-Asberg Depression Rating Scale (MADRS), Phase 1B study; settings: for MADRS value: FIG. 2; for Cohen's d value, MADRS (ANCOVA): all test groups (n=18) vs placebo (n=6)
Protocol: (§1) A double-blind, placebo-controlled, multiple-ascending-dose study employing the compound of formula (1) was performed in patients with symptomatic MDD. Twenty-four subjects were recruited, with their diagnosis and illness severity confirmed through an independent, remote SAFER interview (Targum, S. D., et al., CNS Neurosci. Ther. (2008) 14:2-9) from the Massachusetts General Hospital (MGH) Clinical Trials Network and Institute (CTNI) raters. Each patient underwent a screening for eligibility (Day −37 to Day −6 or −3) and eligible patients were admitted into the unit on Day −5 to complete their wash-out and be reconfirmed for eligibility and for baseline assessments. The patients received daily dosing of formula (1) or placebo for 28 days starting on Day 1 and were followed for safety, pharmacokinetics (PK) and pharmacodynamics (PD) until discharge. At the conclusion of in-house dosing (Day 28), patients remained in the unit for up to 3 additional days, at the psychiatrist's discretion. On Day 35 (±3), Day 42 (±3), Day 49 (±3) and Day 70 (±3) outpatient follow-up visits took place. Patients returned to the unit for extensive follow-up on Day 56 (±3) and Day 84 (±3) (End-of-study).
(§2) The subjects were randomized into four groups of 6 patients each to receive 40 mg of formula (1) per dose administered orally in gelatin capsules once daily, twice daily or three times daily to provide 40 or 80 or 120 mg daily of formula (1) or placebo for 28 days. Each cohort included at least 3 female subjects. In this example, qEEG was used to characterize pharmacodynamic effects.
(§3) In this example, the results of the study of Example 1 were evaluated by the efficacy assessments that included the Montgomery-Asberg Depression Rating Scale (MADRS), the Clinician Global Impression-Improvement (CGI-I), the Symptoms of Depression Questionnaire (SDQ) and the Cognitive and Physical Functioning Questionnaire (CPFQ). […] These improvements persisted over time during the follow-up for MADRS, SDQ and CPFQ.
(§4) Baseline values were adjusted for initial differences and the results for the placebo group (n=6) and the tested groups (n=18) were collapsed. The sizes of the effects were estimated as Cohen's d group mean differences where d=0.20 indicates only a small difference, d=0.50 indicates a medium difference and d=0.80 indicates a large difference. Cohen's d values are described in Cohen, J. (1988) Statistical Power Analysis for the Behavioral Sciences (2nd ed.), Lawrence Erlbaum Associates. D values are used when the scale of a dependent variable is not inherently meaningful, the difference between means are considered in standardized units. That is, effect size is measured in terms of the number of standard deviations by which the means differ. Two commonly used measures are Hedges' g and Cohen's d. Both of these measures consist of the difference between means divided by the standard deviation. They differ only in that Hedges' g uses the version of the standard deviation formula in which division is by N−1, whereas Cohen's d uses the version in which division is by N.
(§5) Covariance is a measure of how much two variables change together and how strong the relationship is between them (Lenth, R. V., The American Statistician (2001) 55:187-193). Analysis of covariance (ANCOVA) is a general linear model which blends analysis of variance (ANOVA) and regression. ANCOVA evaluates whether population means of a dependent variable (DV) are equal across levels of a categorical independent variable (IV), while statistically controlling for the effects of other continuous variables that are not of primary interest, known as covariates (CV). Therefore, when performing ANCOVA, the DV means are adjusted to what they would be if all groups were equal on the CV. In the CGI-I assay, Day 7 was used as the baseline value; in the remaining assays, Day 0 was used as baseline.

[2] = tested on: patients with symptomatic MDD; assay: Cognitive and Physical Functioning Questionnaire (CPFQ), Phase 1B study; settings: for Cohen's d value, CPFQ (ANCOVA): all test groups (n=18) vs placebo (n=6)
Protocol: as §1, §2, §3, §4, §5

[3] = tested on: patients with symptomatic MDD; assay: qEEG pharmacodynamic measurement; settings: pre vs 6 hours post-dose on Day 14 and Day 28; prominent in left posterior temporal and parietal regions; lower HFα with placebo
Protocol: as §1, with “At the conclusion of in-house dosing (Day 28), patients remained in the unit for up to 3 additional days, at the psychiatrist's discretion. On Day 35 (±3), Day 42 (±3), Day 49 (±3) and Day 70 (±3) outpatient follow-up visits took place. Patients returned to the unit for extensive follow-up on Day 56 (±3) and Day 84 (±3) (End-of-study).” left out
(§6) In addition to safety, pharmacokinetic and the behavioral ratings scales described in Example 2, qEEG measurements were obtained 6 hours post-dose on Days 14 and 28 for 20 minutes at rest. EEGs were recorded using 19-standard International 10/20 System scalp locations plus electromyography (EMG) and eye movement monitoring. Digital EEGs recorded using Cadwell Laboratories instrumentation, were reviewed to identify the presence of physiological and instrumentation prior to analyses. […]

[4] = tested on: patients with symptomatic MDD; assay: Safety and tolerability in Phase 1B study
Protocol: as §1, §2, §6

[5] = tested on: patients with symptomatic MDD; assay: Cognitive and Physical Functioning Questionnaire (CPFQ), Phase 1B study; settings: FIG. 4
[6] = Day 14, 1x = 40 mg/day oral (n=6)
[7] = Day 14, 2x = 80 mg/day oral (n=6)
[8] = Day 14, 3x = 120 mg/day oral (n=6)
[9] = Day 14, all three dose groups pooled (n=18)
[10] = Day 28, 1x = 40 mg/day oral (n=6)
[11] = Day 28, 2x = 80 mg/day oral (n=6)
[12] = Day 28, 3x = 120 mg/day oral (n=6)
[13] = Day 28, all three dose groups pooled (n=18)
[14] = Day 56 (follow-up after 28 days dosing), 1x = 40 mg/day oral
[15] = Day 56 (follow-up after 28 days dosing), 2x = 80 mg/day oral
[16] = Day 56 (follow-up after 28 days dosing), 3x = 120 mg/day oral
[17] = Day 56 (follow-up after 28 days dosing), all three dose groups pooled (n=18)
[18] = Day 84 (follow-up after 28 days dosing), 1x = 40 mg/day oral
[19] = Day 84 (follow-up after 28 days dosing), 2x = 80 mg/day oral
[20] = Day 84 (follow-up after 28 days dosing), 3x = 120 mg/day oral
[21] = Day 84 (follow-up after 28 days dosing), all three dose groups pooled
[22] = Day −5 (baseline before dosing), 1x = 40 mg/day group
[23] = Day −5 (baseline before dosing), 2x = 80 mg/day group
[24] = Day −5 (baseline before dosing), 3x = 120 mg/day group
[25] = Day −5 (baseline before dosing), all three dose groups pooled (n=18)

CC(C)CCNc1ncccc1C(=O)N1CCN(Cc2ccccc2)CC1 [formula (1)]
MADRS value ([1]; 40 mg/day, controls (n=2) 23.5): 12.5 | MADRS value ([1]; 80 mg/day, controls (n=2) 18): 15 | MADRS value ([1]; 120 mg/day, controls (n=2) 18): 16 | MADRS Means [1, 6]: 20.1667 | MADRS Means [1, 7]: 18.8333 | MADRS Means [1, 8]: 15.8333 | MADRS Means [1, 9]: 18.2778 | MADRS Means [1, 10]: 12.6667 | MADRS Means [1, 11]: 15 | MADRS Means [1, 12]: 16.5 | MADRS Means [1, 13]: 14.7222 | Cohen's d value, MADRS (ANCOVA) ([1]; Day 30): 0.95 | MADRS Means [1, 14]: 14.3333 | MADRS Means [1, 15]: 12 | MADRS Means [1, 16]: 11.3333 | MADRS Means [1, 17]: 12.5556 | MADRS Means [1, 18]: 15 | MADRS Means [1, 19]: 12 | MADRS Means [1, 20]: 10.8 | MADRS Means [1, 21]: 12.7059 | Cohen's d value, MADRS (ANCOVA) ([1]; Day 85): 0.84 | MADRS Means [1, 22]: 24.8333 | MADRS Means [1, 23]: 24.6667 | MADRS Means [1, 24]: 24.3333 | MADRS Means [1, 25]: 24.6111 | CPFQ value ([2]; 80 mg/day, FIG. 4, controls (n=2) 4.6): 2.6 | Cohen's d value, CPFQ (ANCOVA) ([2]; 30 days): 0.94 | CPFQ Means [2, 6]: 3.3095 | CPFQ Means [2, 7]: 3.2143 | CPFQ Means [2, 8]: 3 | CPFQ Means [2, 9]: 3.1746 | CPFQ Means [2, 10]: 2.7857 | CPFQ Means [2, 11]: 2.6905 | CPFQ Means [2, 12]: 2.6667 | CPFQ Means [2, 13]: 2.7143 | CPFQ Means [2, 14]: 2.9048 | CPFQ Means [2, 15]: 2.3571 | CPFQ Means [2, 16]: 2.5714 | CPFQ Means [2, 17]: 2.6111 | CPFQ Means [2, 18]: 2.8571 | CPFQ Means [2, 19]: 2.4286 | CPFQ Means [2, 20]: 2.3714 | CPFQ Means [2, 21]: 2.563 | Cohen's d value, CPFQ (ANCOVA) ([2]; Day 85): 1.20 | CPFQ Means [2, 22]: 4.0238 | CPFQ Means [2, 23]: 3.4762 | CPFQ Means [2, 24]: 3.7143 | CPFQ Means [2, 25]: 3.7381 | qEEG high frequency α (HFα), amplitude and coherence measures [3]: increased HFα | Serious adverse events ([4]; 40-120 mg/day oral for 28 days): No serious adverse events occurred | Tolerability ([4]; 40-120 mg/day oral for 28 days): well tolerated | Safety EEG recordings by visual inspection ([4]; pre vs post dose): no new findings | CPFQ value ([5]; 40 mg/day, control group (n=2) 3.75): 2.8 | CPFQ value ([5]; 120 mg/day, controls (n=2) 3.3): 2.6
